In US9890152B2 (Genentech, Inc., priority 2012, dated 2018):

Tests used:
EGFR del746-750 T790M = target: T1, EGFR del746-750 T790M (Homo sapiens, UniProt P00533, DEL746-750/T790M); test: EGFR del746-750 T790M biochemical assay (Caliper mobility shift); conditions: 5 μM ATP, 30 min, room temperature; apparent Ki (Morrison) converted by Cheng-Prusoff, Km of ATP 2.1 μM; read-out: EGFR(T790M/d746-750) Ki
T1 construct: purchased Carna Biosciences 08-528

[1] = target: T2, phosphor-EGFR in H1975(L585R/T790M) mutant EGFR expressing cells (Homo sapiens, UniProt P00533, L858R/T790M); test: H1975 pEGFR MSD cellular assay; format: cell-based; conditions: NCI-H1975 cells, serum starved, 1 hour compound incubation, pEGFR Tyr1068 MSD
T2 construct: host or cells: NCI-H1975
Description: H1975 pEGFR MSD Cellular Assays Background:
These assays are intended for determining cellular. […] (Meso Scale Discovery Catalog# N31CB-1).
All cell culture reagents were purchased from Invitrogen/Gibco. Cells are cultured at 37° C. at 5% CO2 and split as recommended by ATCC.
Cell Plating and Serum Starvation:
After six hours, culture medium is aspirated and replaced with serum-free culture medium. Cells are then incubated with the serum-free medium overnight at 37° C. and 5% CO2.
The following day, test compounds are serially diluted in dimethyl sulfoxide (DMSO) and added to cells in serum free medium (final DMSO concentration 0.5%). Assay plates are then incubated for 1 hour at 37° C. and 5% CO2. Following 1 hour of compound incubation cells are then lysed and processed as per the MSD pEGFR assay kit protocol. Cell lysates are added to assay plates pre-coated with antibodies against phosphorylated EGFR. Phosphorylated EGFR in samples are allowed to bind to the capture antibodies overnight at 4° C. The detection antibody (anti-total EGFR, labeled with an electrochemiluminescent SULFO-TAG) is added to the bound lysate and incubated for 1 hour at room temperature. The MSD Read Buffer is added such that when a voltage is applied to the plate electrodes, the labels bound to the electrode surface emit light. The MSD Sector Instrument measures the intensity of the light, and quantitatively measures the amount of phosphorylated-EGFR in the sample. Percent inhibition of EGFR phosphorylation by varying concentrations of test compounds is calculated relative to untreated controls. EC50 values are calculated using the 4 parameter logistic nonlinear regression dose-response model.

T1 sequence (P00533 with tags, fused parts or gaps DEL746-750/T790M limits assumed): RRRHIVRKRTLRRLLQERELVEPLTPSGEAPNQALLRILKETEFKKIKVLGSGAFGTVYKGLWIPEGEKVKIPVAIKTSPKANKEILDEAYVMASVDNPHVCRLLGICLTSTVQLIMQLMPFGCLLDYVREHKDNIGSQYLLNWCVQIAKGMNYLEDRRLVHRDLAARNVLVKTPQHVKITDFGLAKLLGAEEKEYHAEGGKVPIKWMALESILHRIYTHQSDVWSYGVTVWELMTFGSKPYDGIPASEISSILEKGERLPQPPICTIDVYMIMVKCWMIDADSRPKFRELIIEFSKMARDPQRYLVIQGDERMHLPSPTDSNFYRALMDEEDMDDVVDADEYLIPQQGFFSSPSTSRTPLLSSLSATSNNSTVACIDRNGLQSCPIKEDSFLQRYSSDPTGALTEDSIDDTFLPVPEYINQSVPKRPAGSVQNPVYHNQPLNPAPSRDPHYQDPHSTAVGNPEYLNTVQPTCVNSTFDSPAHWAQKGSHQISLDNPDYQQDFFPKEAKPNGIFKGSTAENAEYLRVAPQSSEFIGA
T2 sequence (P00533 25-1210 T790M/L858R): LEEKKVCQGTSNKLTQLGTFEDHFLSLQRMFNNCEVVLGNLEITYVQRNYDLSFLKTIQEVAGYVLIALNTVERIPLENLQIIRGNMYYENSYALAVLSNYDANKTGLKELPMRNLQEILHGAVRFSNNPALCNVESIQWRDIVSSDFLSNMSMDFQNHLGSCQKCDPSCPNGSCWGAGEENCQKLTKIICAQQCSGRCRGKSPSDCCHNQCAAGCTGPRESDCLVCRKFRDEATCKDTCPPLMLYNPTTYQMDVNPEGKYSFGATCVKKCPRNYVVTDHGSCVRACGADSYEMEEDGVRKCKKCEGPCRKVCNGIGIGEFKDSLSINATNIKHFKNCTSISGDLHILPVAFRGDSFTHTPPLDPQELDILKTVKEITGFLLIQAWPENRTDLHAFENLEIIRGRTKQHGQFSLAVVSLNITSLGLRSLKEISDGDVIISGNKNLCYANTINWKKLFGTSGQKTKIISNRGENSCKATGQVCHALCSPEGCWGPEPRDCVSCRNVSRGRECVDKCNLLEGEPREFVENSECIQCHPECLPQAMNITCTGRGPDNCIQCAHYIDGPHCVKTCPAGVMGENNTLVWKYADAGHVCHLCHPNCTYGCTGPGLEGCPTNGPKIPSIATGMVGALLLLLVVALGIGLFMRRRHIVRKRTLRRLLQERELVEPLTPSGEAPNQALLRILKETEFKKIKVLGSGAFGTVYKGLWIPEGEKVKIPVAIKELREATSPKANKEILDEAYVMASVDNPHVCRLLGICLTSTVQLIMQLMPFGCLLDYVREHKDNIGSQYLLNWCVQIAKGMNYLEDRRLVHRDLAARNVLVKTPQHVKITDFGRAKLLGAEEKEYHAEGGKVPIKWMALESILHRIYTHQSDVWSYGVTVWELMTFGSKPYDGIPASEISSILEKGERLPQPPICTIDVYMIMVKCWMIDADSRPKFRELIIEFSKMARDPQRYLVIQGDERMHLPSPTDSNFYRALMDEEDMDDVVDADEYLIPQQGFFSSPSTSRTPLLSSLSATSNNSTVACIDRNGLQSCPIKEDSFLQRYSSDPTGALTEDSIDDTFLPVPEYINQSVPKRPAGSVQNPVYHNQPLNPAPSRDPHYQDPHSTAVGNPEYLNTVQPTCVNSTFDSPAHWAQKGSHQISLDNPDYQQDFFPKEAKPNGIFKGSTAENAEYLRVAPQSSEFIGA

| SMILES | Ki (EGFR del746-750 T790M) [nM] | EC50 [1] [nM] |
| --- | --- | --- |
| COC1CCN(c2nccc(Nc3cc4c(cn3)nc(C(F)F)n4C(C)C)n2)CC1 [Example 110, 2-(difluoromethyl)-1-isopropyl-N-(2-(4-methoxypiperidin-1-yl)pyrimidin-4-yl)-1H-imidazo[4,5-c]pyridin-6-amine] | 144 | 623 |
| COC1CCN(c2nccc(Nc3cc4c(cn3)c(-c3nnc(C)o3)cn4C(C)C)n2)CC1 [Example 59, 1-Isopropyl-N-(2-(4-methoxypiperidin-1-yl)pyrimidin-4-yl)-3-(5-methyl-1,3,4-oxadiazol-2-yl)-1H-pyrrolo[3,2-c]pyridin-6-amine] | 28.7 | 583 |
| CNc1ncc(-c2nccc(Nc3cc4c(cn3)nc(C)n4C(C)C)n2)s1 [Example 312, (1-Isopropyl-2-methyl-1H-imidazo[4,5-c]pyridin-6-yl)-[2-(2-methylaminothiazol-5-yl)pyrimidin-4-yl]amine] | 0.84 | 112 |
| CC(C)n1cc(-c2cnn(CCO)c2)c2cnc(Nc3ccnc(-c4cnn(S(=O)(=O)C5CC5)c4)n3)cc21 [Example 393, 2-(4-(6-((2-(1-(cyclopropylsulfonyl)-1H-pyrazol-4-yl)pyrimidin-4-yl)amino)-1-isopropyl-1H-pyrrolo[3,2-c]pyridin-3-yl)-1H-pyrazol-1-yl)ethanol] | 1.12 | 10.9 |
| COC1CCN(c2nccc(Nc3cc4c(cn3)ncn4C3CCCC3)n2)CC1 [Example 26, (1-Cyclopentyl-1H-imidazo[4,5-c]pyridin-6-yl)-[2-(4-methoxy-piperidin-1-yl)-pyrimidin-4-yl]amine] | 25.2 | 1190 |
| CCC(C)n1cc(C(=O)NC2CCOCC2)c2cnc(Nc3ccnc(N4CCC(O)C(C)(C)C4)n3)cc21 (mixture of isomers) [Example 383, 1-(sec-butyl)-6-((2-(4-hydroxy-3,3-dimethylpiperidin-1-yl)pyrimidin-4-yl)amino)-N-(tetrahydro-2H-pyran-4-yl)-1H-pyrrolo[3,2-c]pyridine-3-carboxamide] | 2.81 | 34.7 |
| COC1CCN(c2nccc(Nc3cc4c(cn3)c(C#N)cn4C(C)C)n2)CC1 [Example 58, 1-Isopropyl-6-((2-(4-methoxypiperidin-1-yl)pyrimidin-4-yl)amino)-1H-pyrrolo[3,2-c]pyridine-3-carbonitrile] | 60.9 | 1410 |
| Cc1nc2cnc(Nc3ccnc(-c4cnn(S(=O)(=O)C5CC5)c4)n3)cc2n1C(C)C [Example 52, N-(2-(1-(Cyclopropylsulfonyl)-1H-pyrazol-4-yl)pyrimidin-4-yl)-1-isopropyl-2-methyl-1H-imidazo[4,5-c]pyridin-6-amine] | 1.8 | 254 |
| CCNC(=O)c1cn(C(C)CC)c2cc(Nc3ccnc(N4CC[C@@H](O)[C@@H](F)C4)n3)ncc12 (single isomer, unassigned) [Example 369] | 5.47 | 239 |
| COC1CCN(c2nccc(Nc3cc4c(cn3)c(C(N)=O)cn4C(C)C)n2)CC1 [Example 115, 1-isopropyl-6-((2-(4-methoxypiperidin-1-yl)pyrimidin-4-yl)amino)-1H-pyrrolo[3,2-c]pyridine-3-carboxamide] | 28.5 | 710 |
| CCNc1ncc(-c2nccc(Nc3cc4c(cn3)nc(C)n4C(C)C)n2)s1 [Example 295, [2-(2-Ethylaminothiazol-5-yl)pyrimidin-4-yl](1-isopropyl-2-methyl-1H-imidazo[4,5-c]pyridin-6-yl)amine] | 1.77 | 80.6 |
| CC1(C)COc2nc3cnc(Nc4ccnc(-c5cnn(S(=O)(=O)C6CC6)c5)n4)cc3n21 [Example 280, [2-(1-Cyclopropanesulfonyl-1H-pyrazol-4-yl)-pyrimidin-4-yl]-(3,3-dimethyl-2,3-dihydro-1-oxa-3a,6,8-triazacyclopenta[a]inden-5-yl)-amine] | 8.86 | 1740 |
| CC(C)n1c(Cl)c(C(=O)NC2CCOCC2)c2cnc(Nc3ccnc(-c4cnn(S(=O)(=O)C5CC5)c4)n3)cc21 [Example 262, 2-Chloro-6-(2-(1-(cyclopropylsulfonyl)-1H-pyrazol-4-yl)pyrimidin-4-ylamino)-1-isopropyl-N-(tetrahydro-2H-pyran-4-yl)-1H-pyrrolo[3,2-c]pyridine-3-carboxamide] | 1.48 | 57.7 |
| CCNC(=O)c1cn(C(C)C)c2cc(Nc3ccnc(N4CCC(OC)CC4)n3)ncc12 [Example 57, N-Ethyl-1-isopropyl-6-((2-(4-methoxypiperidin-1-yl)pyrimidin-4-yl)amino)-1H-pyrrolo[3,2-c]pyridine-3-carboxamide] | 20.2 | 236 |
| CC(C)n1cc(C(=O)NC2CCOCC2)c2cnc(Nc3ccnc(-c4cnn(S(=O)(=O)C5CC5)c4)n3)cc21 [Example 396] | 1.47 | 76.9 |
| COC1CCN(c2nccc(Nc3cc4c(cn3)nc(COCCN(C)C)n4C(C)C)n2)CC1 [Example 8, [2-(2-Dimethylaminoethoxymethyl)-1-isopropyl-1H-imidazo[4,5-c]pyridin-6-yl]-[2-(4-methoxypiperidin-1-yl)pyrimidin-4-yl]amine] | 106 | 585 |
